This data set in a line: recombinant UMI read abundance after kanamycin selection (control-corrected) (log10(CPM+1)); higher = more efficient recombination; extreme values may be limits of the assay; sequences stand for … in AGTGCAGAGAAAATCGGCCAGTTTTCTCTGCCTGCAGTCCGCATGCCGTGGGACCCCTTGGGTTCTAACCTGTTGCCTAGATTTATGCAGCGGACTGCCTTTCTCCCAAAGTGATAAACCGG…AGGTTGGTTTCACT; site = the 11-nt donor. The method in brief:
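Under IPTG (0.07 mM) plus kanamycin, or without selection, Escherichia coli carrying a UMI-tagged donor and donor-binding-loop pair library and a target plasmid for the IS621 bridge recombinase were plated in two replicates. Recombinant UMIs were PCR-amplified across the donor–target junction and sequenced. Counts were converted to CPM, averaged over replicates, scaled by control-derived factors and reported as log10(CPM+1).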
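Further: IS621 bridge recombinase in Escherichia coli cells against a fixed T5 target plasmid.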

As to “GGCCACCCATGGACCGGTTTTCCCGGTAATCCGTATTTGCT (site GGCCACCCTAT)”, the “recombinant UMI read abundance (log10)” value was found to be 0.00294.

For “GGCCACCCATGGACCGGTTTTCCCGGTAATCCGTATTTGGT (site GGCCACCCTAA)”, the “recombinant UMI read abundance (log10)” value is 0.113.

For “GGCCACCCATGGACCGGTTTTCCCGGTAATCCGTATTTGGT (site GGCCACCCTAC)”, the “recombinant UMI read abundance (log10)” value came out at 0.00471.

For the sequence “GGCCACCCATGGACCGGTTTTCCCGGTAATCCGTATTTGGT (site GGCCACCCTAG)”, the “recombinant UMI read abundance (log10)” value was found to be 0.

In the case of “GGCCACCCATGGACCGGTTTTCCCGGTAATCCGTATTTGGT (site GGCCACCCTAT)”, the “recombinant UMI read abundance (log10)” value was determined as 0.0141.

For “GGCCAGTCATGGACCGGTTTTCCCGGTAATCCGTATTTGCA (site GGCCAGTCTTG)”, the “recombinant UMI read abundance (log10)” value was 2.73.

As for “GGCCATCCATGGACCGGTTTTCCCGGTAATCCGTATTTGGC (site GGCCATCCTGC)”, the “recombinant UMI read abundance (log10)” value worked out at 0.

With “GGCCATCCATGGACCGGTTTTCCCGGTAATCCGTATTTGTT (site GGCCAACCTAA)”, the “recombinant UMI read abundance (log10)” value was 0.

Turning to “GGCCATCCATGGACCGGTTTTCCCGGTAATCCGTATTTGTT (site GGCCACCCTAA)”, the “recombinant UMI read abundance (log10)” value came to 0.0125.

For the sequence “GGCCATCCATGGACCGGTTTTCCCGGTAATCCGTATTTGTT (site GGCCAGCCTAA)”, the “recombinant UMI read abundance (log10)” value was found to be 0.00245.

As for “GGCCATCCATGGACCGGTTTTCCCGGTAATCCGTATTTGTT (site GGCCATCCTAA)”, the “recombinant UMI read abundance (log10)” value is 0.0172.

Regarding “GGCCCGCCATGGACCGGTTTTCCCGGTAATCCGTATTTGCC (site GGCCCGCCTGG)”, the “recombinant UMI read abundance (log10)” value is 0.

For the sequence “GGCCCTACATGGACCGGTTTTCCCGGTAATCCGTATTTGTG (site GGCCCTACTCA)”, the “recombinant UMI read abundance (log10)” value stood at 0.33.

As to “GGCCGCACATGGACCGGTTTTCCCGGTAATCCGTATTTGCA (site GGCCGCACTTG)”, the “recombinant UMI read abundance (log10)” value amounted to 1.77.

Take “GGCCGCCCATGGACCGGTTTTCCCGGTAATCCGTATTTGTT (site GGCCACCCTAA)”: the “recombinant UMI read abundance (log10)” value was 0.0225.

As to “GGCCGCCCATGGACCGGTTTTCCCGGTAATCCGTATTTGTT (site GGCCCCCCTAA)”, the “recombinant UMI read abundance (log10)” value came to 0.00441.

With “GGCCGCCCATGGACCGGTTTTCCCGGTAATCCGTATTTGTT (site GGCCGCCCTAA)”, the “recombinant UMI read abundance (log10)” value amounted to 0.00876.

Consider “GGCCGCCCATGGACCGGTTTTCCCGGTAATCCGTATTTGTT (site GGCCTCCCTAA)”, for which the “recombinant UMI read abundance (log10)” value worked out at 0.0158.

“GGCCGTACATGGACCGGTTTTCCCGGTAATCCGTATTTGCT (site AGCCGTACTAG)”: the “recombinant UMI read abundance (log10)” value stood at 0.00424.

As to “GGCCGTACATGGACCGGTTTTCCCGGTAATCCGTATTTGCT (site CGCCGTACTAG)”, the “recombinant UMI read abundance (log10)” value was 0.413.

On to “GGCCGTACATGGACCGGTTTTCCCGGTAATCCGTATTTGCT (site GGCCGTACTAG)”, for which the “recombinant UMI read abundance (log10)” value worked out at 1.83.

“GGCCGTACATGGACCGGTTTTCCCGGTAATCCGTATTTGCT (site TGCCGTACTAG)”: the “recombinant UMI read abundance (log10)” value came out at 0.302.

In the case of “GGCCTTTCATGGACCGGTTTTCCCGGTAATCCGTATTTGAC (site AGCCTTTCTGT)”, the “recombinant UMI read abundance (log10)” value came out at 0.

With “GGCCTTTCATGGACCGGTTTTCCCGGTAATCCGTATTTGAC (site CGCCTTTCTGT)”, the “recombinant UMI read abundance (log10)” value is 0.

Regarding “GGCCTTTCATGGACCGGTTTTCCCGGTAATCCGTATTTGAC (site GGCCTTTCTGT)”, the “recombinant UMI read abundance (log10)” value is 0.

With “GGCCTTTCATGGACCGGTTTTCCCGGTAATCCGTATTTGAC (site TGCCTTTCTGT)”, the “recombinant UMI read abundance (log10)” value is 0.

Consider “GGCCTTTCATGGACCGGTTTTCCCGGTAATCCGTATTTGTC (site GGCCTTTCTGA)”, for which the “recombinant UMI read abundance (log10)” value was 1.46.

Turning to “GGCGATCCATGGACCGGTTTTCCCGGTAATCCGTATTTGAA (site GGCAATCCTTT)”, the “recombinant UMI read abundance (log10)” value amounted to 0.0192.

Consider “GGCGATCCATGGACCGGTTTTCCCGGTAATCCGTATTTGAA (site GGCCATCCTTT)”, for which the “recombinant UMI read abundance (log10)” value worked out at 0.0198.

In the case of “GGCGATCCATGGACCGGTTTTCCCGGTAATCCGTATTTGAA (site GGCGATCCTTT)”, the “recombinant UMI read abundance (log10)” value was determined as 0.785.

Take “GGCGATCCATGGACCGGTTTTCCCGGTAATCCGTATTTGAA (site GGCTATCCTTT)”: the “recombinant UMI read abundance (log10)” value came out at 0.141.

As to “GGCGCCTCATGGACCGGTTTTCCCGGTAATCCGTATTTGGG (site GGCGCCTCTCC)”, the “recombinant UMI read abundance (log10)” value came out at 0.0423.

For “GGCGGGGCATGGACCGGTTTTCCCGGTAATCCGTATTTGTA (site GGCGGGGCTTA)”, the “recombinant UMI read abundance (log10)” value turned out to be 1.53.

Consider “GGCGTAGCATGGACCGGTTTTCCCGGTAATCCGTATTTGTG (site GGCGTAGCTCA)”, for which the “recombinant UMI read abundance (log10)” value is 0.747.

As to “GGCTAGGCATGGACCGGTTTTCCCGGTAATCCGTATTTGGT (site AGCTAGGCTAC)”, the “recombinant UMI read abundance (log10)” value was 0.208.

On to “GGCTAGGCATGGACCGGTTTTCCCGGTAATCCGTATTTGGT (site CGCTAGGCTAC)”, for which the “recombinant UMI read abundance (log10)” value stood at 0.399.

With “GGCTAGGCATGGACCGGTTTTCCCGGTAATCCGTATTTGGT (site GGCTAGGCTAC)”, the “recombinant UMI read abundance (log10)” value was found to be 0.271.

Take “GGCTAGGCATGGACCGGTTTTCCCGGTAATCCGTATTTGGT (site TGCTAGGCTAC)”: the “recombinant UMI read abundance (log10)” value was determined as 0.0118.

As for “GGCTCAGCATGGACCGGTTTTCCCGGTAATCCGTATTTGGG (site AGCTCAGCTCC)”, the “recombinant UMI read abundance (log10)” value amounted to 0.00802.

Turning to “GGCTCAGCATGGACCGGTTTTCCCGGTAATCCGTATTTGGG (site CGCTCAGCTCC)”, the “recombinant UMI read abundance (log10)” value was 0.0293.

“GGCTCAGCATGGACCGGTTTTCCCGGTAATCCGTATTTGGG (site GGCTCAGCTCC)”: the “recombinant UMI read abundance (log10)” value was 0.02.

As for “GGCTCAGCATGGACCGGTTTTCCCGGTAATCCGTATTTGGG (site TGCTCAGCTCC)”, the “recombinant UMI read abundance (log10)” value came to 0.00932.

On to “GGCTGACCATGGACCGGTTTTCCCGGTAATCCGTATTTGAA (site GGCTGACCTTT)”, for which the “recombinant UMI read abundance (log10)” value came to 0.00353.

On to “GGCTTAACATGGACCGGTTTTCCCGGTAATCCGTATTTGTC (site GGCTTAACTGA)”, for which the “recombinant UMI read abundance (log10)” value was 0.732.

“GGGAAGACATGGACCGGTTTTCCCGGTAATCCGTATTTGGC (site GGGAAGACTGC)”: the “recombinant UMI read abundance (log10)” value came out at 1.57.

Turning to “GGGACCTCATGGACCGGTTTTCCCGGTAATCCGTATTTGGT (site GGGACCTCTAC)”, the “recombinant UMI read abundance (log10)” value was found to be 2.

Turning to “GGGACCTCATGGACCGGTTTTCCCGGTAATCCGTATTTGTA (site GGGACCTCTTA)”, the “recombinant UMI read abundance (log10)” value came to 2.24.

As for “GGGACGACATGGACCGGTTTTCCCGGTAATCCGTATTTGCA (site AGGAAGACTTG)”, the “recombinant UMI read abundance (log10)” value was found to be 0.

Consider “GGGACGACATGGACCGGTTTTCCCGGTAATCCGTATTTGCA (site GGGACGACTTG)”, for which the “recombinant UMI read abundance (log10)” value was determined as 2.07.

“GGGAGTCCATGGACCGGTTTTCCCGGTAATCCGTATTTGTT (site CGGAATCCTAA)”: the “recombinant UMI read abundance (log10)” value is 0.00442.

Consider “GGGAGTCCATGGACCGGTTTTCCCGGTAATCCGTATTTGTT (site GGGAGTCCTAA)”, for which the “recombinant UMI read abundance (log10)” value was found to be 0.709.

On to “GGGAGTTCATGGACCGGTTTTCCCGGTAATCCGTATTTGCA (site GGGAGTTCTTG)”, for which the “recombinant UMI read abundance (log10)” value came out at 1.13.

As to “GGGATCTCATGGACCGGTTTTCCCGGTAATCCGTATTTGGG (site GGGATCTCTCC)”, the “recombinant UMI read abundance (log10)” value stood at 1.71.

In the case of “GGGATTTCATGGACCGGTTTTCCCGGTAATCCGTATTTGGG (site GGGATTTCTCC)”, the “recombinant UMI read abundance (log10)” value is 0.679.

Regarding “GGGCACCCATGGACCGGTTTTCCCGGTAATCCGTATTTGTT (site GGACACCCTAA)”, the “recombinant UMI read abundance (log10)” value amounted to 0.0162.

With “GGGCACCCATGGACCGGTTTTCCCGGTAATCCGTATTTGTT (site GGCCACCCTAA)”, the “recombinant UMI read abundance (log10)” value came out at 0.161.

As to “GGGCACCCATGGACCGGTTTTCCCGGTAATCCGTATTTGTT (site GGGCACCCTAA)”, the “recombinant UMI read abundance (log10)” value stood at 0.325.

Consider “GGGCACCCATGGACCGGTTTTCCCGGTAATCCGTATTTGTT (site GGTCACCCTAA)”, for which the “recombinant UMI read abundance (log10)” value is 0.268.

Consider “GGGCCGGCATGGACCGGTTTTCCCGGTAATCCGTATTTGGC (site AGGCCGGCTGC)”, for which the “recombinant UMI read abundance (log10)” value came out at 0.

As for “GGGCCGGCATGGACCGGTTTTCCCGGTAATCCGTATTTGGC (site CGGCCGGCTGC)”, the “recombinant UMI read abundance (log10)” value is 0.

Take “GGGCCGGCATGGACCGGTTTTCCCGGTAATCCGTATTTGGC (site GGGCCGGCTGC)”: the “recombinant UMI read abundance (log10)” value was 0.

Regarding “GGGCCGGCATGGACCGGTTTTCCCGGTAATCCGTATTTGGC (site TGGCCGGCTGC)”, the “recombinant UMI read abundance (log10)” value was determined as 0.

For the sequence “GGGCCTACATGGACCGGTTTTCCCGGTAATCCGTATTTGGG (site GGGCCTACTCC)”, the “recombinant UMI read abundance (log10)” value is 0.

For “GGGCTCACATGGACCGGTTTTCCCGGTAATCCGTATTTGAT (site GAGCTCACTAT)”, the “recombinant UMI read abundance (log10)” value was 0.00773.

With “GGGCTCACATGGACCGGTTTTCCCGGTAATCCGTATTTGAT (site GCGCTCACTAT)”, the “recombinant UMI read abundance (log10)” value came out at 0.802.

With “GGGCTCACATGGACCGGTTTTCCCGGTAATCCGTATTTGAT (site GGGCTCACTAT)”, the “recombinant UMI read abundance (log10)” value is 1.73.

“GGGCTCACATGGACCGGTTTTCCCGGTAATCCGTATTTGAT (site GTGCTCACTAT)”: the “recombinant UMI read abundance (log10)” value is 1.11.

For the sequence “GGGGAACCATGGACCGGTTTTCCCGGTAATCCGTATTTGAT (site AGGGAACCTAT)”, the “recombinant UMI read abundance (log10)” value worked out at 0.

The values above are taken from the supplement of paper PMC11208160.
